The test system of assay [1] is Heidenhain Pouch Dog. Put plainly: Gastric antisecretory activity in the Heidenhain Pouch Dog. Format: in vivo, dogs. To be noted: 95% confidence limits in parentheses; for ED50: Canis lupus familiaris. As to the method: Determination of Gastric Antisecretory […] in the Heidenhain Pouch Dog Prior to surgery, hematology and blood chemistry profiles are obtained and an assessment made as to the general health of selected female dogs. Dogs are vaccinated with Tissue […]-Moore) and housed in general animal quarters for four weeks' observation so incipient diseases may become apparent. Dogs are fasted with water ad libitum 24 hours prior to surgery. […] Subsequent anesthesia is maintained with methoxy- flurane (Pitman-Moore). A mid-line linea alba incision from xiphoid to umbilicus provides good exposure and ease of closure. The stomach is pulled up into the operative fields the greater curvature stretched out at multiple points and clamps placed along the selected line of incision. The pouch is made from the corpus of the stomach so that true parietal cell juice is obtained. About 30% of the corpus volume is resected. The cannula is made of light-weight, biologically-inert material such as nylon or Delrin with dimensions and attachments after DeVito and […] fJ. Appl. Physiol., 14, 138 (1959)]. Post operatively, dogs are medicated with antibiotics and an analgesic. They are allowed 2-3 months for recovery. Experiments are carried out in the following way: […] The dogs are placed in a sling and a saphenous vein cannulated for drug administration. Histamine as the base (100 μg/kg/hr) and chlorpheniramine maleate (0.25 mg/kg/hr) are infused continuously (in a volume of 6 mL/hr) with a Harvard infusion pump. Ninety minutes' infusion are allowed for the dogs to reach a steady state of acid output. At this time the drug or normal saline (control) is administered concomitantly with the secretagogue in a volume of 0.5 mL/kg over a 30 second period. When oral studies are to be carried out, the drug is administered via gastric gavage in a volume of 5 mL/kg. Infusion of the secretagogue is continued and 15 minute samples of the gastric juice are taken for 4.5 hours. Each sample is measured to the nearest 0.5 mL and titratable acidity is determined by titrating a 1 mL sample to pH 7.0 with 0.2N NaOH, using an Autoburet and an electrometric pH meter '(Radiometer). Titratable acid output is calculated in microequivalents by multiplying the volume in milliliters by the acid concentration in milliequivalents per liter. Results are expressed as percent inhibition relative to control readings. Dose response curves are constructed and ED50 values are calculated by regression analyses. From 3 to 5 dogs are used at each dose level and a minimum of three dosage levels are utilized for determination of a dose response curve.

Assay [2] deals with gastric acid secretion. In words: Inhibition of gastric acid secretion relative to cimetidine, various animal studies. The assay is classed as in vivo. To be noted: inhibitors of gastric acid secretion, oral route. The procedure: Based on this potency difference, the oral dosage of the compounds of Examples 1 and 9 would be about 1/20 to 1/25 that of cimetidine, thus reducing the expected incidence of side effects. The usual oral dosage of cimetidine is 300 mg, given four times a day, while the usual dosage of the compounds of Examples 1 and 9 is about 12-15 mg, given four times a day. It was an object of this invention to further reduce the necessary dosage of the compounds of Formula I by the concomitant administration of a peptic activity- inhibitory amount of pepstatin. As will be shown below, such concomitant administration provides about a three-fold increase in potency compared with the administration of an equal amount of the compound of Formula I alone, thus permitting a further three-fold reduction in the dosage of the compound of Formula I.

Assay [3] concerns Gastric Fistula Rat. In words: Gastric antisecretory activity in the Gastric Fistula Rat. Format: in vivo, Long Evans rats. The note with it: sc; for ED50: Rattus norvegicus, read-out: ED50 sc. The procedure: Determination of Gastric Antisecretory Activity in the Gastric Fistula Rat
Male Long Evans rats weighing about 240-260 grams at the time of cannula implantation are used. […] The fistula components are designed and the operative procedure is carried out exactly as described in the above reference. Post operatively the animals are individually housed in solid bottom cages with sawdust and are allowed food and water ad libitum throughout the entire recovery period. Animals are not used for test purposes for at least 15 days after the operative procedure.
The animals are fasted but allowed water ad libitum for 20 hours before the testing procedure is to begin. Immediately prior to collection, the cannula is opened and the. stomach washed gently with 30-40 mL of warm saline or distilled water to remove any residual contents. The catheter is then screwed into the cannula in place of the plugging screw and the rat is placed in a clear plastic rectangular cage measuring 40 cm long, 15 cm wide and 13 cm high. The bottom of the cage has a slit approximately 1.5 cm wide and 25 cm long running down the center to accommodate the catheter which hangs through it. In this way the rat is not restricted and can move -freely about the cage during collection periods. The remainder of the assay is carried out as described by Ridley et al. [Research Comm. Chem. Path.
Gastric secretions collected during the first hour after washing the stomach are discarded as they may be contaminated. For oral evaluation, the catheter is then removed from the cannula and replaced with the plugging screw. Water (2 mL/kg) is administered orally via gastric intubation and the animal is returned to the cage for 45 minutes. After this time the plugging screw is removed and replaced with a catheter to which a small plastic vial has been attached to collect the gastric secretions. A two hour sample is collected (this represents the control secretion), the catheter removed and.replaced with the plugging screw. The test drug is now administered orally in a volume of 2 mL/kg via gastric intubation. Forty-five minutes later the plugging screw is again removed, replaced with the catheter attached to a small plastic vial and another 2 hour sample is collected. The secretions in the second sample are compared to those of the control sample in order to determine thee effects of the test drug.
When test compounds are to be evaluated parenterally, the animal is injected ip or sc with the test compound vehicle in a volume of 2 mL/kg immediately after discarding the initial 60 minute collection. A two hour sample is collected (control secretion) and the animals are injected either ip or sc with the test compound in a volume of 2 mL/kg. An additional two hour sample is collected and its secretions are compared to those of the control period to determing drug effects.
The samples are centrifuged in a graduated tube for volume determination. Titratable acidity is measured by titrating a one mL sample to pH 7.0 with 0.02N NaOH, using an Autoburet and an electrometric pH meter (Radiometer). Titratable acid output is calculated in microequivalents by multiplying the volume in milliliters by the acid concentration in milliequivalents per liter.
Results are expressed as percent inhibition relative to control readings. Dose response curves are constructed and ED50 values are calculated by regression analyses. At least three rats are used at each dosage level and a minimum of three dosage levels are utilized for determination of a dose response curve.

Assay [4] has as its system gastric acid secretion. In words: Inhibition of gastric acid secretion relative to cimetidine, oral route, dog. The assay is classed as in vivo. As to the method:
(§1) In the tests described below, gastric erosions produced in rats by the oral instillation of 1.0 mL of 0.75N HC1 were compared with those in rats which had been pretreated with the most preferred compound of Formula I (of Example 1) or with that compound and pepstatin. Comparison tests utilizing pretreatment with the newer commercial product, ranitidine, and with ranitidine and pepstatin, are also shown. Ranitidine is about 4 and 6 times as potent as cimetidine as an inhibitor of gastric acid secretion by the oral route in the rat and dog, respectively.

For assay [5], the system named is gastric acid secretion. In words: Inhibition of gastric acid secretion relative to cimetidine, oral route, rat. Format: in vivo. The procedure: as §1
For assay [6], the system named is HCl-Induced Formation of Gastric Lesions. Put plainly: HCl-induced gastric erosions in rats (modified method of Robert et al.). The assay is classed as in vivo, Long Evans rats. To be noted: compound alone versus compound plus pepstatin (20 mg/kg po). The procedure: as §1
A modification of the method of Robert et al., [Gastroenterology, 77, 433-443 (1979)] was employed to produce gastric erosions. Adult male, Long Evans rats weighing 280-300 g (Blue Spruce Farms, Alton, New York) were used. The animals were individually caged and food and water were removed 24 and 18 hours, respectively, prior to testing. On the following day, the test compound was administered orally to the animals 30 minutes before 1.0 mL of 0.75N HC1 was instilled into the stomach by gavage. Animals treated with the combination of the test compound and pepstatin received the test compound 30 minutes before, and a fixed amount of pepstatin (20 mg/kg po) 10 minutes before, the hydrochloric acid was administered. […] One hour after receiving the HC1 solution, the animals were sacrificed with an intraperitoneal injection of 0.2 mL of T-61®, a euthanasia solution (National Laboratories Corp.).
The stomachs were removed from the animals, cut along the greater curvature, opened, rinsed with saline and pinned out flat in a standard position for macroscopic examination and scoring of erosions. The stomachs were photographed with a Polaroid® Close Up camera (Polaroid Corporation) and scoring was determined from the photographs. For scoring purposes, only those erosions with a minimum length of 1 mm were considered. The severity of gastric ulceration was defined for each animal as the sum of the maximum continuous lengths (in mm) of the erosions satisfying the above criteria. Percent inhibition of lesion formation was defined as
(mm erosion, vehicle control') - (mm erosion, test agent) 100. (mm erosion, vehicle control)
Data were analyzed using the t-test for unpaired data' and ED50 values were calculated from the dose response data using probit analysis [Finney, Probit Analysis, 3rd ed., University Press, Cambridge, England (1971)].
The compound of Example 1 and ranitidine (synthesized by the Medicinal Chemistry Research Department of Bristol Laboratories, Division of.Bristol-Myers Company) were dissolved in one equivalent of HC1 and the pH adjusted to 5.5 with NaOH. A suspension of pepstatin (Banyu Pharmaceutical Co. Ltd.) in water was made by homogenizing the compound with a few drops of Tween-80® (Atlas Chemical Industries). Each of these compounds were administered orally by gavage in a volume of 2 mL/kg.

[7] abbreviates: 95% confidence limits in parentheses.

Read-outs that look alike come from different tables or passages of the source.

`CN(C)Cc1cccc(OCCCNc2c(N)c(=O)c2=O)c1` [Example 9, 1-Amino-2-[3-(3-dimethylaminomethylphenoxy)propylamino]cyclobutene-3,4-dione]: the entries for the “Potency Ratio [cimetidine = 1.0]” value in assay [1] (INTRAVENOUS), in assay [1] (ORAL) and in assay [3] (setting [7]) were roughly 40, roughly 20 and 61 (20-204), respectively. Further, the “times more potent than cimetidine” value in assay [2] was 20-25. Further, the ED50 in assay [3] (setting [7]) was 0.055 µmol/kg.

For the compound `CN(C)Cc1ccc(CSCCNc2c(N)c(=O)c2=O)o1` [Example 2, 1-Amino-2-{2-[(5-dimethylaminomethyl-2-furyl)methylthio]ethyl-amino}cyclobutene-3,4-dione], the “Potency Ratio [cimetidine = 1.0]” value in assay [1] (INTRAVENOUS) was roughly 20. Further, in assay [3] (setting [7]), the ED50 was less than 1 µmol/kg and the “Potency Ratio [cimetidine = 1.0]” value is greater than 4.

Turning to `O=c1c(NCCCOc2cccc(CN3CCCCC3)c2)c(NCc2cccnc2)c1=O` [Example 12, 2-[3-(3-Piperidinomethylphenoxy)propylamino]-l-(3-pyridyl)methyl-aminocyclobutene-3,4-dione], in assay [3] (setting [7]), the ED50 is 0.094 µmol/kg and the “Potency Ratio [cimetidine = 1.0]” value is on record as 44 (22-90).

Consider `C#CCNc1c(NCCCOc2cccc(CN3CCCCC3)c2)c(=O)c1=O` [Example 14d], for which, in assay [3] (setting [7]), the ED50 is 0.031 µmol/kg and the “Potency Ratio [cimetidine = 1.0]” value was 124 (62-243).

Take `Nc1c(NCCCOc2cccc(CN3CCCCCCC3)c2)c(=O)c1=O` [Example 10j, 1-amino-2-[3-(3-heptamethyleneiminomethylphenoxy)propylamino]-cyclobutene-3,4-dione]: in assay [3] (setting [7]), the ED50 stood at 0.044 µmol/kg and the “Potency Ratio [cimetidine = 1.0]” value is given as 88 (36-211).

Turning to `CN(C)Cc1ccc(CSCCNc2c(N)c(=O)c2=O)s1` [Example 3, 1-Amino-2-{2-[(5-dimethylaminomethyl-2-thienyl)methylthio]ethyl-amino}cyclobutene-3,4-dione], in assay [3] (setting [7]), the 50% effective dose (ED50) is roughly 4 µmol/kg and the “Potency Ratio [cimetidine = 1.0]” value is recorded as roughly 1.

For `CN/C(=N/CCSCc1nc[nH]c1C)NC#N` [Cimetidine, cimetidine, reference compound], the ED50 in assay [1] (INTRAVENOUS) was determined as 2.18 µmol/kg; in assay [1] (ORAL), 3.29 µmol/kg; in assay [3], 3.8 µmol/kg.

`CNc1c(NCCCOc2cccc(CN3CCCCC3)c2)c(=O)c1=O` [Example 11, 1-Methylamino-2-[3-(3-piperidinomethylphenoxy)propylamino]cyclobutene-3,4-dione]: in assay [3] (setting [7]), the ED50 came to 0.067 µmol/kg and the “Potency Ratio [cimetidine = 1.0]” value is 50 (15-169).

For the compound `Nc1c(NCCCOc2cccc(CN3CCCCCC3)c2)c(=O)c1=O` [Example 10i, 1-amino-2-[3-(3-hexamethyleneiminomethylphenoxy)propylamino]-cyclobutene-3,4-dione], in assay [1] (INTRAVENOUS), the “Potency Ratio [cimetidine = 1.0]” value is greater than 40. In addition, in assay [3] (setting [7]), the ED50 was determined as 0.08 µmol/kg and the “Potency Ratio [cimetidine = 1.0]” value is reported as 48 (21-97).

For the compound `CNC(=C[N+](=O)[O-])NCCSCc1ccc(CN(C)C)o1` [Ranitidine, ranitidine], the “times as potent as cimetidine as an inhibitor of gastric acid secretion” value in assay [4] is recorded as roughly 6; in assay [5] it was “about 4”. In addition, the “Potency Ratio” value in assay [6] is 1.18.

For the compound `Nc1c(NCCCOc2cccc(CN3CCCCCCCC3)c2)c(=O)c1=O` [Example 10m, 1-amino-2-[3-(3-octamethyleneiminomethylphenoxy)propylamino]-cyclobutene-3,4-dione], in assay [3] (setting [7]), the ED50 is 0.7 µmol/kg and the “Potency Ratio [cimetidine = 1.0]” value was 5.4 (2.1-12).

For the origin of these results see EP0099122A2, “Compositions comprising pepstatin and an histamine H2-receptor antagonist having an enhanced antiulcer activity” (Bristol-Myers Company, priority 1982, dated 1984).
